Results published in patent publication US10406126B2, “ALDH2 activator” (Eisai R&D Management Co., Ltd., priority 2018, dated 2019).

Key:
[1] = Method: (Comparison of Amounts of Produced Reactive Metabolites)
Ability of compounds to produce reactive metabolites was evaluated, using the method as described below. Cytochrome P450 (CYP) dependent metabolism was initiated, by adding 1 mg/mL human liver microsome, 0.2 mmol/L compound, and 0.1 mmol/L RI-labeled capture agent, and lastly 1 mmol/L NADPH to 100 mM phosphate buffer (pH 7.4). After incubation at 37° C. for 60 minutes, the reaction mixture (0.1 mL) and an equal volume of acetonitrile were added to stop the metabolic reaction. After 0.8 mL of water was added to the supernatant from centrifugation, 0.5 mL of the resulting solution was injected into HPLC connected to a radio detector and a covalent complex between the reactive metabolite and Relabeled capture agent was quantitatively analyzed for its RI intensity.

[2] = molecular target: T1, aldehyde dehydrogenase 2 (ALDH2) (Homo sapiens, UniProt P05091); test: Effects of compounds on the acetaldehyde oxidation rate by ALDH2 (PicoProbe Aldehyde dehydrogenase Activity Assay Kit); type: biochemical; settings: read-out: acetaldehyde oxidation rate (rate in the absence of the compounds = 100); for activity at 1 µM: compound concentration 1 μM; for activity at 10 µM: compound concentration 10 μM
T1 construct: purchased ATGen Inc
T1 sequence (P05091 18-517): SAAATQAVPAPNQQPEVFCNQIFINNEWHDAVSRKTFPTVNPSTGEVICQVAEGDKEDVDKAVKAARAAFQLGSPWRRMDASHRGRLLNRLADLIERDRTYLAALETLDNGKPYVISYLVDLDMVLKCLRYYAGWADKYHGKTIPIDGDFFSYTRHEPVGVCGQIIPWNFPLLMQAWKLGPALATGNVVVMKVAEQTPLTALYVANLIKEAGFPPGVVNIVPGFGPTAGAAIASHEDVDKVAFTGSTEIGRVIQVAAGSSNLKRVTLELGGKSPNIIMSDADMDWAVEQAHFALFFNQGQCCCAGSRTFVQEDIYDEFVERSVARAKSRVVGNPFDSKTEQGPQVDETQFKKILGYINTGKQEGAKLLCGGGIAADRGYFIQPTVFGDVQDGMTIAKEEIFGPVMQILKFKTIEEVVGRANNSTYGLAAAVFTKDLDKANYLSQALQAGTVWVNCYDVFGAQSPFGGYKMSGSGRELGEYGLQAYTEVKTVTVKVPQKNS
Method: (Effects of Compounds on the Acetaldehyde Oxidation Rate by Aldehyde Dehydrogenase 2 (ALDH2))
Effects of compounds on the acetaldehyde oxidation rate by aldehyde dehydrogenase 2 (ALDH2) were evaluated using a method known in the art. Specifically, the test was performed using a commercially available kit, PicoProbe™ Aldehyde dehydrogenase Activity Assay Kit (from BioVision Inc.) in accordance with the product's instruction. Reagents as described below were sequentially added to each well in a 384-well plate with a pipette.
1. 10 μL of the commercially available ALDH2 enzyme (from ATGen Inc.) dissolved in ALDH assay Buffer so as to obtain a concentration of 1 μg/mL.
2. 10 μL, of 30 μM or 3 μM compound solution (containing 3% DMSO) prepared with ALDH assay Buffer
3. […] of Reaction mix consisting of 7.82 μL of ALDH assay Buffer, 0.55 μL of PicoProbe, 0.27 μL of Substrate Mix, and 1.36 μL of Acetaldehyde
Before addition of 3, the plate was incubated at room temperature for 5 minutes. After addition of 3, fluorescence was determined using EnVision 2101 Multilabel Reader (from PerkinElmer Inc.) at room, temperature over 60 minutes. The measurements were taken at interval of 2 minutes.
Fluorescence was detected at an excitation wavelength of 535 nm and an emission wavelength of587 nm.
Table 1 lists the oxidation rates when the compounds are added, in which the rates are calculated on the basis of the assumption that the acetaldehyde oxidation rates in the absence of the compounds are 100. The rate for Comparative Example 1 compound was normalized to a value of “175” for 10 μM of the compound concentration while the rate for Comparative Example 1 compound was normalized to a value of “137” for 1 μM of the compound concentration.

[3] = test system: mechanical allodynia induced by carrageenan in C57 BL/6J mice; test: Suppressive effect of pain induced by carrageenan (von Frey withdrawal score); type: in vivo, mouse; settings: mean ± S.E.
Method: (Suppressive Effect of Pain Induced by Carrageenan)
This experiment was earned out with reference to Science Translational Medicine 6, 251 r118 (2014). Male C57 BL/6J mice (Charles River Japan) of 7-week-old were used. Carrageenan was subcutaneously administered to the mouse by intraplantar injection of the left hind paw to induce mechanical allodynia in the footpad. Mechanical stimulus-evoked withdrawal response at 180 min after the induction was assessed by applying a von Frey filament (ascending bending force 0.16 g) to the footpad, of the hind paw. The filament was perpendicularly applied to the footpad so that the filament was bent for 6 second. The withdrawal response was scored in three stages (0: no response or startle response (moving paw without lifting); 1: lifting of paw; 2: licking or shaking of paw). The mouse was stimulated ten times and the sum of the scores of the ten stimulation (withdrawal score) was calculated.
The compound of Example 1 was dissolved in DMSO/5% glucose solution for injection (1:1 by volume ratio). […]
Wilcoxon rank sum test was used to compare the vehicle-treated group and the Example 1-treated group. The significance level was calculated as 5%, divided into less than 5% (p<0.05) and less than 1% (p<0.01). […]

Row | activity at 1 µM [2] [%] | activity at 10 µM [2] [%] | SMILES | amount of reactive metabolites produced, in words [1] | Total pain-related score (withdrawal score) ([3]; 180 min after carrageenan induction, 12 mg/kg s.c. three times, **p < 0.01 vs vehicle) | Total pain-related score (withdrawal score) ([3]; Pre: before carrageenan induction)
1 | 136 | 175 | COCc1ccc(CNC(=O)c2c(Cl)cccc2C(C)C)cc1F [Example 12, 2-Chloro-N-[3-fluoro-4-(methoxymethyl)benzyl]-6-isopropylbenzamide] |  |  | 
2 | 125 | 168 | COCc1ccc(CNC(=O)c2c(F)cccc2Cl)cc1F [Example 10, 2-Chloro-6-fluoro-N-{[3-fluoro-4-(methoxymethyl)phenyl]methyl}benzamide] |  |  | 
3 | 108 | 148 | COCc1ccc(CNC(=O)c2ccccc2Cl)cc1F [Example 6, 2-Chloro-N-{[3-fluoro-4-(methoxymethyl)phenyl]methyl}benzamide] |  |  | 
4 | 129 | 168 | COCc1ccc(CNC(=O)c2c(Cl)cccc2Br)cc1F [Example 5, 2-Bromo-6-chloro-N-{[3-fluoro-4-(methoxymethyl)phenyl]methyl}benzamide] |  |  | 
5 | 128 | 165 | COCc1ccc(CNC(=O)c2c(F)cccc2Br)cc1F [Example 8, 2-Bromo-6-fluoro-N-{[3-fluoro-4-(methoxymethyl)phenyl]methyl}benzamide] |  |  | 
6 | 114 | 143 | COCc1ccc(CNC(=O)c2c(F)cccc2F)cc1F [Example 13, 2,6-Difluoro-N-{[3-fluoro-4-(methoxymethyl)phenyl]methyl}benzamide] |  |  | 
7 | 119 | 156 | COCc1ccc(CNC(=O)c2ccccc2Br)cc1F [Example 7, 2-Bromo-N-{[3-fluoro-4-(methoxymethyl)phenyl]methyl}benzamide] |  |  | 
8 | 117 | 156 | COCc1ccc(CNC(=O)c2c(C)cccc2C)cc1F [Example 11, N-{[3-Fluoro-4-(methoxymethyl)phenyl]methyl}-2,6-dimethylbenzamide] |  |  | 

The remaining lines, values behind:

Row | SMILES | activity at 1 µM [2] [%] | activity at 10 µM [2] [%] | amount of reactive metabolites produced, in words [1] | Total pain-related score (withdrawal score) ([3]; 180 min after carrageenan induction, 12 mg/kg s.c. three times, **p < 0.01 vs vehicle) | Total pain-related score (withdrawal score) ([3]; Pre: before carrageenan induction)
9 | O=C(NCc1ccc2c(c1)OCO2)c1c(Cl)cccc1Cl [Comparative Example 1, N-[(2H-1,3-Benzodioxol-5-yl)methyl]-2,6-dichlorobenzamide, reference compound] | 137 | 175 | produces reactive metabolites as much as clozapine |  | 
10 | COCc1cc(F)c(CNC(=O)c2c(Cl)cccc2Cl)cc1F [Example 2, 2,6-Dichloro-N-{[3,6-difluoro-4-(methoxymethyl)phenyl]methyl}benzamide] | 125 | 168 |  |  | 
11 | COCc1ccc(CNC(=O)c2c(Cl)cccc2Cl)cc1F [Example 1, 2,6-Dichloro-N-{[3-fluoro-4-(methoxymethyl)phenyl]methyl}benzamide] | 138 | 179 |  | 6.8 ± 1.0** | 1.6 ± 0.2
12 | O=C(NCc1ccc2c(c1)OCCO2)c1c(Cl)cccc1Cl [Comparative Example 2, 2,6-dichloro-N-[(2,3-dihydro-1,4-benzodioxin-6-yl)methyl]benzamide, reference compound] | 125 | 164 |  |  | 
13 | COCc1ccc(CNC(=O)c2c(Cl)cccc2Cl)cc1C [Example 4, 2,6-Dichloro-N-{[4-(methoxymethyl)-3-methylphenyl]methyl}benzamide] | 136 | 175 |  |  | 
14 | COCc1ccc(CNC(=O)c2c(Cl)cccc2Cl)cc1 [Example 3, 2,6-Dichloro-N-[4-(methoxymethyl)benzyl]benzamide] | 117 | 156 |  |  | 
